Reference: patent US20110020470A1, “METHODS AND COMPOSITIONS FOR TREATING CANCER” (SOUND PHARMACEUTICALS INCORPORATED, priority 2005, published 2011)

Assays:
[1] = test system: mammalian ovarian cancer cell lines; test: MTT cytotoxicity study, statements over all ovarian cancer cell lines tested; type: cell-based
Protocol: (§1) Each of the cell lines listed above was plated at a density of 3,500 cells per well in 96 well plates and incubated at 37° C. for 24 hours. […] After the one hour incubation, 50 μl of cisplatin and paclitaxel were added to the cell lines at the various concentrations shown in TABLE 2 to achieve an IC50 in the absence of other drugs. The cells were then incubated at 37° C. in 5% CO2 in the presence of the cisplatin and paclitaxel for an additional 67-72 hours.
(§2) After the 67-72 hour incubation period, 10 μl of MTT (3-(4,5-dimethlythiazol-2-yl)-2,5-diphenyl […] bromide) working solution was added to each well (based on the instructions in the Chemicon MTT Cell Growth Kit Cat #CT01) and the cells were incubated for 4 hours. 100 μl of isopropanol/HCl solution was then added to each well and absorbance at 570 nm was measured.

[2] = test system: ES-2 clear cell carcinoma ovarian cancer cells; test: MTT cytotoxicity study with ebselen and allopurinol; type: cell-based, human; settings: each drug 100 μM, no cisplatin/paclitaxel
Protocol: as §1, with “67-72 hours. Control wells were included as follows: no drug, ebselen, allopurinol, ebselen and allopurinol, and cisplatin/paclitaxel.” for “67-72 hours.”
as §2, with “measured. The results of the MTT assay for the different ovarian cancer cell lines tested are shown in FIGS. 9A-16C and are summarized below in TABLE 3.” for “measured.”

[3] = test system: SKOV-3 adenocarcinoma ovarian cancer cells; test: as above; type: cell-based, human; settings: each drug 100 μM, no cisplatin/paclitaxel
Protocol: as §1, with “67-72 hours. Control wells were included as follows: no drug, ebselen, allopurinol, ebselen and allopurinol, and cisplatin/paclitaxel.” for “67-72 hours.”
as §2, with “measured. The results of the MTT assay for the different ovarian cancer cell lines tested are shown in FIGS. 9A-16C and are summarized below in TABLE 3.” for “measured.”

[4] = test system: CAOV-3 adenocarcinoma ovarian cancer cells; test: as above; type: cell-based, human; settings: each drug 100 μM, no cisplatin/paclitaxel
Protocol: as §1, with “67-72 hours. Control wells were included as follows: no drug, ebselen, allopurinol, ebselen and allopurinol, and cisplatin/paclitaxel.” for “67-72 hours.”
as §2, with “measured. The results of the MTT assay for the different ovarian cancer cell lines tested are shown in FIGS. 9A-16C and are summarized below in TABLE 3.” for “measured.”

[5] = test system: OVCAR-3 adenocarcinoma ovarian cancer cells; test: as above; type: cell-based, human; settings: each drug 100 μM, no cisplatin/paclitaxel
Protocol: as §1, with “67-72 hours. Control wells were included as follows: no drug, ebselen, allopurinol, ebselen and allopurinol, and cisplatin/paclitaxel.” for “67-72 hours.”
as §2, with “measured. The results of the MTT assay for the different ovarian cancer cell lines tested are shown in FIGS. 9A-16C and are summarized below in TABLE 3.” for “measured.”

[6] = test system: TOV-112D adenocarcinoma/endometroid carcinoma ovarian cancer cells; test: as above; type: cell-based, human; settings: each drug 100 μM, no cisplatin/paclitaxel
Protocol: as §1, with “67-72 hours. Control wells were included as follows: no drug, ebselen, allopurinol, ebselen and allopurinol, and cisplatin/paclitaxel.” for “67-72 hours.”
as §2, with “measured. The results of the MTT assay for the different ovarian cancer cell lines tested are shown in FIGS. 9A-16C and are summarized below in TABLE 3.” for “measured.”

[7] = test system: OV-90 papillary serous adenocarcinoma ovarian cancer cells; test: as above; type: cell-based, human; settings: each drug 100 μM, no cisplatin/paclitaxel
Protocol: as §1, with “67-72 hours. Control wells were included as follows: no drug, ebselen, allopurinol, ebselen and allopurinol, and cisplatin/paclitaxel.” for “67-72 hours.”
as §2, with “measured. The results of the MTT assay for the different ovarian cancer cell lines tested are shown in FIGS. 9A-16C and are summarized below in TABLE 3.” for “measured.”

[8] = test system: NuTu-19 ovarian cancer cells; test: MTS cell viability assay, cultured NuTu-19 cells; type: cell-based, rat; settings: for effect on the ability of cisplatin to kill NuTu-19 cells: with cisplatin 43 μM, FIG. 2 and 3
Protocol: NuTu-19 cells were plated at a density of 3,000 cells per well in 96 well culture dishes, and incubated at 37° C., in the presence of 5% carbon dioxide, for 24 hours. […] The NuTu-19 cells were then rinsed with media and incubated in the presence of cisplatin for an additional 24 hours.
The NuTu-19 cells were then rinsed twice with phosphate buffered saline (PBS), then MTS assays were performed to measure the number of living cells. MTS is an abbreviation for (3-(4,5-dimethylthiazol-2-yl)-5-(3-carboxymethoxyphenyl)-2-(4-sulfophenyl)-2H-tetrazolium. The MTS assay is a colorimetric method for determining the number of viable cells based upon physiologic catabolism of MTS to a formazan product that is soluble in tissue culture medium. The absorbance of the formazan product at 490 nm can be measured directly from a 96 well plate using a plate reader. Increased absorbance at 490 nm correlates with increased production of formazan in a well. This is typically due to more viable cells present in a well.

[9] = test system: rSPI-tu epithelial ovarian cancer cells; test: MTT cytotoxicity study with ebselen and allopurinol; type: cell-based, rat; settings: each drug 100 μM, no cisplatin/paclitaxel
Protocol: as §1, with “The cells were then incubated at 37° C. in 5% CO2 in the presence of the cisplatin and paclitaxel for an additional 67-72 hours.” left out
as §2, with “[…],” for “After the 67-72 hour incubation period,”

[10] = patients receiving cisplatin; Helson 1978; cited from earlier work
NuTu-19 tumors = test: NuTu-19 ovarian cancer tumor model in F-344 rats, tumor response; type: in vivo, rat
Protocol: An ovarian cancer tumor model was established in rats by injection of 10^7 NuTu-19 cells into the peritoneal cavity of 8-10 week old female F-344 rats. Rats with injected NuTu-19 cells were allowed to develop tumor burden for two weeks prior to cisplatin treatment. A control series of 10 rats was evaluated separately for the development of ovarian tumor burden under the described conditions. All rats in the control series were sacrificed 5 weeks after NuTu-19 tumor cell injection and tumor burden was evaluated.
The absence of ascites, but presence of more than 5 visible tumor nodules (each >0.5 mm) in the peritoneal cavity was considered to be an indication that the cancer partially responded to the treatment. The absence of ascites and presence of fewer than 5 visible tumor nodules (each >0.5 mm) was considered to be an indication that the cancer fully responded to the treatment.

non-cancer cell line = settings: Baldew et al. 1992; cited from earlier work
[11] = treatment of acute ischemic stroke; cited from earlier work
[12] = test system: rats treated with cisplatin; test: Auditory Evoked Brainstem Response (ABR), permanent threshold shift after cisplatin; type: in vivo, rat; settings: 8, 16, 24, 32 kHz; ebselen 16 mg/kg i.p. plus cisplatin 16 mg/kg i.p., versus cisplatin without ebselen; 72 hours; FIG. 6
Protocol: (§3) Auditory Evoked Brainstem Response (ABR) was used to assess hearing in rats before and after exposure to cisplatin and chemoprotectants. Ebselen or DMSO (control vehicle) were introduced intraperitoneally into rats one hour before intraperitoneal administration of cisplatin at a dosage of 16 mg/kg body weight. Seventy-two hours after delivery of cisplatin, ABR data were collected, animals were sacrificed, cochleae were collected, dissected, stained with FITC-phalloidin (to detect F-Actin in hair cells), and DAPI (to detect nuclear DNA).
Ten cochlea were tested per treatment. The PTS is a measure of hearing loss.
Four cochlea were tested per treatment.

[13] = test system: TOV-21G adenocarcinoma/clear cell carcinoma ovarian cancer cells; test: MTT cytotoxicity study with ebselen and allopurinol; type: cell-based, human; settings: each drug 100 μM, no cisplatin/paclitaxel
Protocol: as §1, with “67-72 hours. Control wells were included as follows: no drug, ebselen, allopurinol, ebselen and allopurinol, and cisplatin/paclitaxel.” for “67-72 hours.”
as §2, with “measured. The results of the MTT assay for the different ovarian cancer cell lines tested are shown in FIGS. 9A-16C and are summarized below in TABLE 3.” for “measured.”

inner ear hair cells = test: Cochlea explant culture, inner ear hair cell count (calbindin/DAPI); type: cell-based, mouse; settings: FIG. 5
Protocol: Three cochlea per treatment, obtained from P3-4 mouse pups, were cultured in 0.4 micrometer MilliCell-CM inserts with NeuroBasal A medium plus B27 supplement. After 24 hours in culture, ebselen was added to the medium, incubated for ten minutes, and then cisplatin was added to the medium at a final concentration of 43 μM. A first control treatment included 43 μM cisplatin. A second control treatment included 47 μM ebselen without the addition of cisplatin. All cultures were incubated for 24 hours at 37° C. in 5% carbon dioxide.
The explants were then harvested, fixed, and stained with calbindin (which detects hair cells) and DAPI (4′,6-Diamindino-2-phenylindole; for detection of nuclear DNA).

[14] = test system: cochlear outer hair cells; test: Count of outer auditory hair cells in excised cochleae after cisplatin; type: in vivo, rat; settings: cisplatin and ebselen versus cisplatin, saline and DMSO; FIG. 8A, 8B
Protocol: as §3
Additionally, cochleae were excised from rats treated with the combination of cisplatin and ebselen as described in this Example. Cochleae were also excised from rats treated with cisplatin and saline and DMSO (control). The number of outer auditory hair cells in the excised cochlea were counted at intervals of 0.1 mm along the cochlea. Representative results from a control rat and a treated rat are shown in FIG. 8A and FIG. 8B, respectively.

[15] = all cell lines tested, concentration range from 20 μM to 100 μM

Row | Structure (SMILES) | cytotoxicity on the ovarian cancer cell lines [1, 15] | Percent live cells after 96 hour drug treatment [2] [%] | Percent live cells after 96 hour drug treatment [3] [%] | Percent live cells after 96 hour drug treatment [4] [%] | Percent live cells after 96 hour drug treatment [5] [%] | Percent live cells after 96 hour drug treatment [6] [%] | Percent live cells after 96 hour drug treatment [7] [%] | effect on the ability of cisplatin to kill NuTu-19 cells [8] | Percent live cells after 96 hour drug treatment [9] [%] | also measured
1 | Oc1ncnc2[nH]ncc12 [allopurinol] | did not have a toxic effect | ~90 | ~90 | ~80 | ~100 | ~100 | ~100 | does not inhibit the ability of cisplatin to kill NuTu-19 ovarian cancer tumor cells | ~80 | 
2 | N.N.[Cl][Pt][Cl] [cisplatin, cis-diaminedichloroplatinum] |  |  |  |  |  |  |  |  |  | patients who experience significant hearing loss [10]: up to 90%; Tumor Response % Complete (NuTu-19 tumors; rats that showed no sign of tumor burden): 57%; Tumor Response % Partial (NuTu-19 tumors; rats that showed some evidence of tumor burden): 43%; Tumor Response % No (NuTu-19 tumors; rats with tumors not responsive to cisplatin treatment): 0%; killing of cultured NuTu-19 ovarian cancer cells ([8]; incubation for 24 hours in the presence of cisplatin, FIG. 1): killed
3 | O=c1c2ccccc2[se]n1-c1ccccc1 [ebselen, 2-phenyl-1,2-benzoisoselenazol-3(2H)-one] | induced dose-dependant cytotoxicity | ~20 | ~40 | ~0 | ~20 | ~18 | ~40 | does not inhibit the ability of cisplatin to kill NuTu-19 ovarian cancer tumor cells | ~20 | toxicity in a non-cancer cell line (non-cancer cell line): non-toxic; effect on the chemotherapeutic activity of cisplatin and paclitaxel in multi-drug chemotherapy resistant cell lines ([1]; ES-2, SKOV-3 and OVCAR-3): enhanced the chemotherapeutic activity of cisplatin and paclitaxel; effect on the chemotherapeutic effect of cisplatin plus paclitaxel [1, 15]: enhances the chemotherapeutic effect of cisplatin plus paclitaxel; adverse events in human clinical testing [11]: no adverse events were identified; permanent threshold shift (PTS) in hearing [12]: PTS is less; Percent live cells after 96 hour drug treatment [13]: ~18%; protection of inner ear hair cells from damage by cisplatin (inner ear hair cells; 47 μM ebselen plus 43 μM cisplatin, 24 hours, in vitro): protects inner ear hair cells from damage by cisplatin; cytotoxic effect on cochlear inner ear cells (inner ear hair cells; ebselen 47 μM without cisplatin): does not appear to have a cytotoxic effect; percentage of outer hair cells missing in cochleae [14]: less
